Reference: patent US9446017B2, “Compositions and methods for treating herpes simplex virus” (Augusta University Research Institute, Inc., priority 2005, dated 2016)
Where “and” joins values, the source holds several entries; their conditions need not be identical. Equal entries are not always repeated. Entries after “also recorded” stand apart in the source; their conditions may differ.

Legend:
Format in all cases: cell-based
HSV1 [1] = assay: Viral titer study using plaque assay, HSV virions pre-treated with polyphenol, Vero cells
Procedure: Vero cells were plated on 6 well plates and allowed to reach confluence. HSV virions were treated for 1 hour with the respective concentration of polyphenols (12.5, 25, 50, 75, 100 μM) prior to cell infection. Cells were then infected with HSV and allowed to adsorb for 1 hour. Viruses that had not been absorbed were then aspirated. Plates were then overlaid with a nutrient medium-containing agar. Plaques were visualized by staining cells with crystal violet, observed, and counted within 50 hours.
Viral titer was determined to study the effect of 50 μM of EGCG and EGCG-ester on the viral particle production by using plaque assay. Serial dilutions of viral lysates were performed from 10^−1 to 10^−7 and cells were then infected respectively with the dilutions.
In order to obtain the minimum inhibitory concentration of EGCG-ester on HSV1, different concentrations (12.5, 25, 50, 75 μM) of EGCG-ester were used at lower dilution of viral lysate (10^−1 and 10^−2).

HSV1 [2] = assay: PCR-based assay of viral DNA, band intensity on agarose gel; conditions: for DNA band intensity, primers for glycoprotein D, GFP and VP11/12: HSV1 treated with 75 μM
From the text: Nine sets of primers were designed to prime different regions of the HSV1 genome based on published sequences. Two sets of primers were designed to target HSV I glycoprotein D. These include 5′-[…]-3′ (SEQ ID NO:2) for the forward and 5′-[…]-3′ (SEQ ID NO:3) for the reverse. The second set includes 5′-[…]-3′ (SEQ ID NO:4) for the forward and 5′[…]-3′ (SEQ ID NO:5) for the reverse. Next, two sets of primers were designed to target HSV1 glycoprotein B. They are the following: 5′[…]-3′ (SEQ ID NO:6) for the forward and 5′-[…]-3′ (SEQ ID NO:7) for the reverse. The second set includes 5′-[…]-3′(SEQ ID NO:8) for the forward and 5′-[…]-3′ (SEQ ID NO:9) for the reverse. A third set of primers had been previously designed and published on the book Herpes Simplex Virus Protocols by S. Moira Brown and Alasdair R. MacLean. The set includes 5′[…]-3′ (SEQ ID NO:10) for the forward and 5′-[…]-3′ (SEQ ID NO:11) for the reverse. A set of primers was designed to target the Green Fluorescent protein attached to the UL46 gene of HSV 1. It includes 5′-[…]-3′ (SEQ ID NO:14) for the forward and 5′-[…]-3′ (SEQ ID NO:15) for the reverse. A second set of primers designed for the GFP had been previously designed 42. It includes 5′-[…]-3′ (SEQ ID NO:12) for the forward and 5′-[…]-3′ (SEQ ID NO:13) for the reverse. Finally, two sets of primers were designed to target HSV1 tegument protein VP11/12 that corresponds to the UL46 gene. They are the following: 5′-[…]-3′ (SEQ ID NO:16) for the forward and 5′-[…]-3′ (SEQ ID NO:17) for the reverse. The second set includes 5′-[…]-3′ (SEQ ID NO:18) for the forward and 5′[…]-3′ (SEQ ID NO:19) for the reverse. The reaction mix included 1 μL of the extracted DNA, 1 μL of forward and 1 μL of reverse primers, 12.5 μL of Master Mix, and 9.5 μL of diH2O. The mix was put into PCR tubes and placed into a Labnet MultiGene II thermal cycler (Labnet International, Edison N.J.). The reaction profile was initial denaturation at 95° C. for 2 minutes followed by cycles of denaturation at 95° C. for 30 seconds, annealing at 60° C. for 1 minute and extension at 72° C. for 30 seconds. The last step included a final extension period at 72° C. for 10 minutes. […]
Polymerase chain reaction products were analyzed and visualized on 1% agarose gels. […] The gel was then analyzed under UV light using Kodak Image Station 440 CF (Perkin Elmer Life Sciences, Waltham, Mass.).
Cells were grown on 60 mm plates and allowed to reach confluency. […] DNA concentration was then measured by using a Nanodrop Specrophotometer.
DNA extracted from HSV1/Vero cells and EGCG-ester HSV1/Vero cells was purified and isolated and the amount and purity was determined by Nanodrop spectrophotometer ND1000. […]

HSV1 [3] = assay: Real time PCR of HSV1 glycoprotein D; conditions: for fold difference in the amount of glycoprotein D DNA vs HSV1/Vero: Ct based; for inhibits HSV1: FIG. 10
Procedure: A set of primer that primes HSV1 glycoprotein D was designed for use in Real time polymerase chain reaction. This set includes 5″-[…]-3′ (SEQ ID NO:20) for the forward and 5′[…]-3′ (SEQ ID NO:21) for the reverse. Each tube (except the negative controls-no DNA) contained […] of Fast SYBR green master mix (ABI Fast SYBR Green Master Mix), 1 μL of forward primer, 1 μL of reverse primer, […] of genomic DNA and 6 μL of […]. The samples were run on an ABI StepOnePlus Real-Time PCR System. The Run methods were: a holding stage at 95° C. for 5 minutes followed by 40 cycles of denaturation at 95° C. for 1 minute, annealing at 60° C. for 1 minute and extension at 72° C. for 30 seconds. Next, the melting curve stage included 95° C. for 15 seconds, followed by 60° C. for 1 minute, and 95° C. for 15 seconds.
Cells were grown on 60 mm plates and allowed to reach confluency. Cells were then infected with HSV I treated and HSV1 non-treated for 1 hour at 37° C. and 5% CO2. After absorption time, cells were washed with PBS and media was added to the plates. After 12 hours, cells were trypsinized and DNA was extracted using the DNeasy Blood and Tissue Handbook (Qiagen 2006). DNA concentration was then measured by using a Nanodrop Specrophotometer.
The process of real time PCR works by collecting fluorescence data at the end of each cycle of the reaction. The SYBR green dye used in the experiment binds to the double stranded PCR product causing the PCR product to fluoresce. As the reaction continues the instrument recalls the threshold for each sample. The threshold cycle (Ct) is the critical cycle at which the first significance increase in fluorescence is detected. Once the PCR cycles ended, the data were collected and the Ct values for each of the samples were analyzed and the relative quantity (RQ) of fluorescence was reported. The standard for comparing Ct values is that a difference in one Ct is equivalent to a two-fold difference in the amount of DNA. […] of DNA was used for all samples; cells only, HSV1/Vero, and EGCG-ester HSV1/Vero.

## O=C(O[C@@H]1Cc2c(O)cc(O)cc2O[C@@H]1c1cc(O)c(O)c(O)c1)c1cc(O)c(O)c(O)c1 [EGCG, (−)-epigallocatechin-3-gallate, reference compound]
HSV1 [1]; 50 μM
  fold decrease in titer / plaque formation vs HSV1/Vero: 10 fold
HSV1 [1]; HSV1 treated with 50 μM polyphenol before infection of Vero cells
  viral titer: 1×10^5 PFU/ml
HSV1 [2]
  DNA band intensity, primers for glycoprotein D, GFP and VP11/12: decreased
HSV1 [3]
  fold difference in the amount of glycoprotein D DNA vs HSV1/Vero: 32 fold
  inhibits HSV1: 95%

## CCCCCCCCCCCCCCCC(=O)Oc1c(O)cc([C@H]2Oc3cc(O)cc(O)c3C[C@H]2OC(=O)c2cc(O)c(O)c(O)c2)cc1O [EGCG-ester]
HSV1 [1]; 50 μM EGCG-ester and above, viral lysate dilution 10^−1 and 10^−2
  reduction of HSV1 ability to form plaques: > 99%
HSV1 [1]; 50 μM and above
  plaque (PFU) formation: no plaques observed; also recorded: completely inhibits PFU formation
HSV1 [1]; 50 μM, viral lysate dilutions 10^−1 to 10^−7
  plaque formation: no plaque formation
HSV1 [2]; 75 μM, control average 525.29
  band intensity of glycoprotein D PCR product, average: 400.05
HSV1 [2]; 75 μM, control readings 445.92, 588.24, 541.73
  band intensity of glycoprotein D PCR product (single reading): 353.87 and 438.47 and 407.82
HSV1 [2]
  DNA band intensity, primers for glycoprotein D, GFP and VP11/12: further decreased
HSV1 [3]
  fold difference in the amount of glycoprotein D DNA vs HSV1/Vero: 256 fold
  inhibits HSV1: 99.46%
